Test results: US4774330A, “Cephalosporin intermediates” (Hoffmann-La Roche Inc., priority 1980, dated 1988)
Where a name gives a salt, the structure may show the parent alone. Read-outs that look alike come from different tables or passages of the source.

Columns and labels:
[1] = tested on: Streptococcus pyogenes; assay: s.c. treatment of mice before i.p. infection, Streptococcus pyogenes; format: in vivo; details: sc, 5 hours before i.p. infection
Description: (§1) The long retention of the products in accordance with the invention in the organism is also evident after the s.c. treatment of mice with product A or C 5 hours before a i.p. infection with the microorganism to be tested, the following Ed50 values being ascertained: […]

[2] = tested on: Escherichia coli; assay: s.c. treatment of mice before i.p. infection, Escherichia coli; format: in vivo; details: sc, administered 24 hours before the infection
Description: The long retention of the products in accordance with the invention in the organism is also evident after the s.c. treatment of mice with product A or C 5 hours before a i.p. infection with the microorganism to be tested, the following Ed50 values being ascertained: | *Administered 24 hours before the infection.

[3] = tested on: Klebsiella pneumoniae; assay: MIC in vitro, Klebsiella pneumoniae; format: cell-based
Description: (§2) The following products were tested:
(§3) The following results relate to the minimum inhibitory concentration (MIC) in vitro (μg/ml): […]

[4] = tested on: Enterobacter cloacae; assay: MIC in vitro, Enterobacter cloacae; format: cell-based
Description: as §2, §3

[5] = tested on: Enterobacter aerogenes; assay: MIC in vitro, Enterobacter aerogenes; format: cell-based; details: Klebsiella aerogenes
Description: as §2, §3

[6] = tested on: Streptococcus pyogenes; assay: MIC in vitro, Streptococcus pyogenes; format: cell-based
Description: as §2, §3

[7] = tested on: Serratia marcescens; assay: MIC in vitro, Serratia marcescens; format: cell-based
Description: as §2, §3

[8] = tested on: Neisseria gonorrhoeae; assay: MIC in vitro, Neisseria gonorrhoeae; format: cell-based
Description: as §2, §3

[9] = tested on: Staphylococcus epidermidis; assay: MIC in vitro, Staphylococcus epidermidis; format: cell-based
Description: as §2, §3

[10] = tested on: Citrobacter freundii; assay: MIC in vitro, Citrobacter freundii; format: cell-based
Description: as §2, §3

[11] = half-life in vivo after i.v. administration; details: rat, plasma, iv; 20 mg i.v., rats
From the text: The compounds of formula I as well as the corresponding readily hydrolyzable esters, readily hydrolyzable ethers and salts and the hydrates of same have antibiotic, especially bactericidal, activity.

[12] = tested on: Proteus mirabilis; assay: MIC in vitro, Proteus mirabilis; format: cell-based
Description: as §2, §3

[13] = tested on: Proteus rettgeri; assay: MIC in vitro, Proteus rettgeri; format: cell-based; details: Providencia rettgeri
Description: as §2, §3

[14] = tested on: Streptococcus pneumoniae; assay: MIC in vitro, Streptococcus pneumoniae; format: cell-based
Description: as §2, §3

[15] = tested on: Staphylococcus aureus; assay: MIC in vitro, Staphylococcus aureus; format: cell-based
Description: as §2, §3

[16] = toxicity, 24 hours values; format: in vivo; details: 24 hours value; for MTD at 24 h: in vivo, read-out: Tolerated dosage
Description: The compounds in accordance with the invention are non-toxic, as will be evident from the following data for the 24 hours values of products A and B: […]

[17] = tested on: Escherichia coli; assay: MIC in vitro, Escherichia coli; format: cell-based
Description: as §2, §3

[18] = tested on: Proteus inconstans; assay: MIC in vitro, Proteus inconstans; format: cell-based; details: Providencia alcalifaciens
Description: as §2, §3

[19] = tested on: Streptococcus viridans; assay: MIC in vitro, Streptococcus viridans; format: cell-based
Description: as §2, §3

[20] = tested on: Streptococcus faecalis; assay: MIC in vitro, Streptococcus faecalis; format: cell-based; details: Enterococcus faecalis
Description: as §2, §3

[21] = tested on: Proteus vulgaris; assay: MIC in vitro, Proteus vulgaris; format: cell-based
Description: as §2, §3

[22] = tested on: Neisseria meningitidis; assay: MIC in vitro, Neisseria meningitidis; format: cell-based
Description: as §2, §3

[23] = tested on: Proteus morganii; assay: MIC in vitro, Proteus morganii; format: cell-based; details: Morganella morganii
Description: as §2, §3

[24] = tested on: Haemophilus influenzae; assay: MIC in vitro, Haemophilus influenzae; format: cell-based
Description: as §2, §3

[25] = tested on: Serratia marcescens; assay: s.c. treatment of mice before i.p. infection, Serratia marcescens; format: in vivo; details: sc, 5 hours before i.p. infection
Description: as §1

[26] = tested on: Pseudomonas aeruginosa; assay: MIC in vitro, Pseudomonas aeruginosa; format: cell-based
Description: as §2, §3

Cn1nc(OCOC(=O)C(C)(C)C)c(=O)nc1SCC1=C(C(=O)OCOC(=O)C(C)(C)C)N2C(=O)[C@@H](NC(=O)/C(=N\O)c3csc(N)n3)[C@H]2SC1 [Product C, Methylene-(6R,7R)-7-[2-(2-amino-4-thiazolyl)-2-(Z-hydroxyimino)acetamido]-3-[[[2,5-dihydro-2-methyl-5-oxo-6-[(pivaloyloxy)methoxy]-as-triazin-3-yl]thio]methyl]-8-oxo-5-thia-1-azabicyclo[4.2.0]-oct-2-ene-2-carboxylate pivalate]
ED50 [1]: 0.45 mg/kg
ED50 [2]: 5.6 mg/kg

Cn1nc(O)c(=O)nc1SCC1=C(C(=O)O)N2C(=O)[C@@H](NC(=O)/C(=N\O)c3csc(N)n3)[C@H]2SC1 [Product A, (6R,7R)-7-[2-(2-Amino-4-thiazolyl)-2-(Z-hydroxyimino)acetamido]-3-/[(2,5-dihydro-6-hydroxy-2-methyl-5-oxo-as-triazin-3-yl)thio]methyl/-8-oxo-5-thia-1-azabicyclo[4.2.0]oct-2-ene-2-carboxylic acid disodium salt]
MIC ([3]; strain 1): 0.02 µg/mL
MIC ([3]; strain 2): 0.1 µg/mL
MIC ([3]; strain 3): 0.025 µg/mL
MIC ([3]; strain 4): 0.05 µg/mL
MIC ([4]; strain 1): 20 µg/mL
MIC ([4]; strain 2): > 80 µg/mL
MIC ([4]; strain 3): > 25 µg/mL
MIC ([4]; strain 4): 12.5 µg/mL
MIC ([5]; strain 1): 0.1 µg/mL
MIC ([5]; strain 2): 0.8 µg/mL
ED50 [1]: 0.15 mg/kg
MIC ([6]; strain 1): 0.1 µg/mL
MIC ([6]; strain 2): 0.05 µg/mL
MIC ([7]; strain 1): 0.16 µg/mL
MIC ([7]; strain 2): 0.31 µg/mL
MIC ([7]; strain 3): 0.31 µg/mL
MIC ([7]; strain 4): 0.63 µg/mL
MIC ([7]; strain 5): 0.31 µg/mL
MIC ([7]; strain 6): 0.31 µg/mL
MIC ([7]; strain 7): 0.31 µg/mL
MIC ([7]; strain 8): 0.31 µg/mL
MIC ([7]; strain 9): 0.16 µg/mL
MIC ([7]; strain 10): 0.8 µg/mL
MIC ([7]; strain 11): 6.3 µg/mL
MIC ([7]; strain 12): 0.1 µg/mL
MIC ([8]; strain 1): 0.0012 µg/mL
MIC ([8]; strain 2): 0.0012 µg/mL
MIC ([8]; strain 3): 0.02 µg/mL
MIC ([8]; strain 4): 0.01 µg/mL
MIC ([8]; strain 5): 0.04 µg/mL
MIC ([8]; strain 6): 0.0006 µg/mL
MIC [9]: 1.6 µg/mL
MIC ([10]; strain 1): 80 µg/mL
MIC ([10]; strain 2): 6.3 µg/mL
MIC ([10]; strain 3): 0.2 µg/mL
half-life [11]: 2.33 h
MIC ([12]; strain 1): 0.02 µg/mL
MIC ([12]; strain 2): 0.025 µg/mL
MIC ([12]; strain 3): 0.05 µg/mL
MIC ([12]; strain 4): 0.025 µg/mL
MIC ([13]; strain 1): 0.63 µg/mL
MIC ([13]; strain 2): 0.05 µg/mL
MIC [14]: 0.4 µg/mL
MIC ([15]; strain 1): 0.62 µg/mL
MIC ([15]; strain 2: β-lactamase producing): 1.2 µg/mL
MIC ([15]; strain 3): 1.6 µg/mL
MIC ([15]; strain 4): 1.6 µg/mL
MIC ([15]; strain 5): 1.6 µg/mL
MIC ([15]; strain 6): 3.1 µg/mL
MTD at 24 h ([16]; intravenous): 500 mg/kg
MTD at 24 h ([16]; oral): 5000 mg/kg
Lethal dosage ([16]; intravenous): 1000 mg/kg
Lethal dosage ([16]; oral): > 5000 mg/kg
Lethal dosage ([16]; subcutaneous): > 4000 mg/kg
MIC ([17]; strain 1): 1.2 µg/mL
MIC ([17]; strain 2): 1.2 µg/mL
MIC ([17]; strain 3): 2.5 µg/mL
MIC ([17]; strain 4): 0.31 µg/mL
MIC ([17]; strain 5): 0.4 µg/mL
MIC ([17]; strain 6): 0.2 µg/mL
MIC ([17]; strain 7): 0.025 µg/mL
MIC ([17]; strain 8): 0.05 µg/mL
MIC ([18]; strain 1): 0.08 µg/mL
MIC ([18]; strain 2): 0.01 µg/mL
MIC ([18]; strain 3): ≤ 0.025 µg/mL
MIC [19]: 1.6 µg/mL
MIC ([20]; strain 1): 25 µg/mL
MIC ([20]; strain 2): > 25 µg/mL
MIC ([21]; strain 1): 0.31 µg/mL
MIC ([21]; strain 2): 0.31 µg/mL
MIC ([21]; strain 3): 0.63 µg/mL
MIC ([21]; strain 4): 3.1 µg/mL
MIC ([21]; strain 5): 0.1 µg/mL
MIC ([21]; strain 6): 0.05 µg/mL
MIC ([22]; strain 1): 0.0025 µg/mL
MIC ([22]; strain 2): 0.0025 µg/mL
MIC ([22]; strain 3): 0.0025 µg/mL
MIC ([22]; strain 4): 0.0012 µg/mL
MIC ([23]; strain 1): ≤ 0.04 µg/mL
MIC ([23]; strain 2): 0.05 µg/mL
MIC ([24]; strain 1): 0.63 µg/mL
MIC ([24]; strain 2): 0.04 µg/mL
MIC ([24]; strain 3): 0.04 µg/mL
MIC ([24]; strain 4): 0.04 µg/mL
MIC ([24]; strain 5): 0.04 µg/mL
MIC ([24]; strain 6): 0.02 µg/mL
MIC ([24]; strain 7): 0.04 µg/mL
ED50 [25]: 0.89 mg/kg
MIC ([26]; strain 1): > 80 µg/mL
MIC ([26]; strain 2): > 80 µg/mL
MIC ([26]; strain 3): 40 µg/mL
MIC ([26]; strain 4): 80 µg/mL
MIC ([26]; strain 5): > 80 µg/mL
MIC ([26]; strain 6): 10 µg/mL
MIC ([26]; strain 7): 5 µg/mL
MIC ([26]; strain 8): 20 µg/mL
MIC ([26]; strain 9): > 80 µg/mL
MIC ([26]; strain 10): 10 µg/mL
MIC ([26]; strain 11): 5 µg/mL
MIC ([26]; strain 12): > 80 µg/mL
MIC ([26]; strain 13): 80 µg/mL
MIC ([26]; strain 14): > 80 µg/mL
MIC ([26]; strain 15): 80 µg/mL
MIC ([26]; strain 16): > 80 µg/mL
MIC ([26]; strain 17): > 80 µg/mL

Cn1nc(OCOC(=O)C(C)(C)C)c(=O)nc1SCC1=C(C(=O)O)N2C(=O)[C@@H](NC(=O)/C(=N\O)c3csc(N)n3)[C@H]2SC1 [Product B, (6R,7R)-7-[2-(2-Amino-4-thiazolyl)-2-(Z-hydroxyimino)acetamindo]-3-[[[2,5-dihydro-2-methyl-5-oxo-6-[(pivaloyloxy)methoxy]-as-triazin-3-yl]thio]methyl]-8-oxo-5-thia-1-azabicyclo[4.2.0]oct-2-ene-2-carboxylic acid sodium salt]
MIC ([3]; strain 2): 1.6 µg/mL
MIC ([3]; strain 3): 0.4 µg/mL
MIC ([3]; strain 4): 0.8 µg/mL
MIC ([4]; strain 3): > 25 µg/mL
MIC ([4]; strain 4): 6.3 µg/mL
MIC ([5]; strain 1): 0.2 µg/mL
MIC ([5]; strain 2): 1.6 µg/mL
MIC ([6]; strain 1): 0.025 µg/mL
MIC ([6]; strain 2): 0.025 µg/mL
MIC ([7]; strain 10): 6.3 µg/mL
MIC ([7]; strain 11): 12.5 µg/mL
MIC ([7]; strain 12): 1.6 µg/mL
MIC [9]: 0.4 µg/mL
MIC ([10]; strain 2): 3.1 µg/mL
MIC ([10]; strain 3): 0.4 µg/mL
MIC ([12]; strain 2): 0.4 µg/mL
MIC ([12]; strain 3): 1.6 µg/mL
MIC ([12]; strain 4): 0.8 µg/mL
MIC ([13]; strain 2): 0.4 µg/mL
MIC [14]: 0.1 µg/mL
MIC ([15]; strain 3): 0.4 µg/mL
MIC ([15]; strain 4): 0.8 µg/mL
MIC ([15]; strain 5): 0.4 µg/mL
MIC ([15]; strain 6): 0.8 µg/mL
MTD at 24 h ([16]; sc, subcutaneous): > 4000 mg/kg
MTD at 24 h ([16]; oral): > 5000 mg/kg
MIC ([17]; strain 5): 0.4 µg/mL
MIC ([17]; strain 6): 0.2 µg/mL
MIC ([17]; strain 7): 0.05 µg/mL
MIC ([17]; strain 8): 0.8 µg/mL
MIC ([18]; strain 2): 0.2 µg/mL
MIC ([18]; strain 3): ≤ 0.025 µg/mL
MIC [19]: 0.4 µg/mL
MIC ([20]; strain 1): 6.3 µg/mL
MIC ([20]; strain 2): > 25 µg/mL
MIC ([21]; strain 4): 12.5 µg/mL
MIC ([21]; strain 5): 0.8 µg/mL
MIC ([21]; strain 6): 0.8 µg/mL
MIC ([23]; strain 2): 1.6 µg/mL
